Test [1] addresses T1, TYK2 JH1 kinase (Homo sapiens, UniProt P29597).
T1 sequence (P29597 897-1176 limits assumed): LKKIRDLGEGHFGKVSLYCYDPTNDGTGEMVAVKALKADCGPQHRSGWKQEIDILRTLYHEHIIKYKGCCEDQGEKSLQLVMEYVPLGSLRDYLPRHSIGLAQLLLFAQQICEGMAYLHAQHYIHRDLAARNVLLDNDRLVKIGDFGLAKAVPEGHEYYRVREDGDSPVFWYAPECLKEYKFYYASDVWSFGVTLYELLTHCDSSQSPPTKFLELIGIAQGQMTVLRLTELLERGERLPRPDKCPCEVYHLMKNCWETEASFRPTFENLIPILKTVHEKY
Description: TYK2 JH1 enzyme assay in vitro (TR-FRET). It counts as biochemical. On the technique in general: TR-FRET usually uses a lanthanide donor and a delayed reading to cut background.

The subject of test [2] is imiquimod-induced mouse psoriasis-like model. In words: Imiquimod-induced mouse psoriasis-like model (PASI score). The note with it: oral gavage, 10 mg/kg, 25 mg/kg, 50 mg/kg, bid, compared with the model group. Format: in vivo.
For test [3], the system named is mouse asthma model induced by OVA. Description: Mouse asthma model induced by OVA: inflammatory cells in bronchoalveolar lavage fluid. Format: in vivo. The procedure: The efficacy of the compounds according to the present invention in a mouse asthma model induced by OVA could be assessed using the following method:
Test sample: the compound of Example 3 was weighed accurately, and dissolved in DMSO to prepare a solution at a concentration of 2 mg/mL.
30 female BALB/c mice were adaptively fed. After one week, 10 mice were randomly taken out and fed as a blank control group, and 20 mice were selected to establish the asthma model. The model mice were intraperitoneally injected with 0.2 mL of sensitizing solution for sensitization respectively on 0, 7 and 14 days. The sensitization solution contained 50 μg of OVA and 2 mg of Al(OH)3. The blank control group received an equivalent volume of physiological saline.
From day 21 to day 23 after sensitization, the mice in the model group and the administration group were subjected to nebulization stimulation with 5% OVA for 30 min, and the mice in the blank control group received nebulization with physiological saline for the same duration.
30 min before daily stimulation of the mice, 50 μl of physiological saline was administered endotracheally to mice in the blank control and model groups, and 50 μl of the corresponding drug was administered endotracheally to mice in the Example 3 compound group, once daily for 3 consecutive days.
After the airway hyperresponsiveness measurement, the mice were euthanized by cervical dislocation and fixed on a dissecting tray. The abdomens and thoracic cavities of the mice were opened, and the neck skin and excess tissues were excised to expose the mouse trachea. A small incision was made on the transverse axis of the trachea with small scissors, a pre-prepared 1 mL syringe needle was inserted therein, and the needle was fixed with surgical thread. 0.5 mL of pre-cooled phosphate-buffer solution (PBS) was aspirated with a 1 ml syringe and slowly injected into the lungs of the mice, followed by slow withdrawal. Each mouse was lavaged once, and a total of about 0.4 mL of lavage fluid was collected. The number of inflammatory cells in the bronchoalveolar lavage fluid was measured by a cell counter.
Statistical analysis was conducted using SPSS software, Measurement data were expressed as mean±standard deviation. One Way ANOVA was used for inter-group comparisons, LSD test was used for those with homogeneous variance, and Dunnett-t test was used for those with heterogeneous variance. Differences were statistically significant with P<0.05.

Setting [4] is: 2 mg/mL, 50 μL endotracheally, once daily for 3 days.

Molecules are shown by their SMILES. Bounds are passed on as bounds.

As to `[2H]C([2H])([2H])NC(=O)c1nnc(NC(=O)C2CC2)cc1Nc1cccc(C(=O)Nc2cccc(C)c2)c1OC` [Example 3], in test [1], the 50% inhibitory concentration (IC50) (usually the concentration that gives 50% inhibition) was above 10 µM. For the same compound, in test [2], the “Improvement of psoriasis symptoms by oral administration” value is listed as “effectively improve psoriasis symptoms”. Further, in test [3] (setting [4]), the “Number of inflammatory cells: Leukocyte” value was 1,241.7 ± 618.1 ×10^3, the “Number of inflammatory cells: Lymphocyte” value was 791.7 ± 524.9 ×10^3, the “Number of inflammatory cells: Monocyte” value was 58.3 ± 37.0 ×10^3 and the “Number of inflammatory cells: Neutrophil” value is reported as 391.7 ± 206.3 ×10^3. Besides, in test [3] (pre-administration before stimulation), the “Effect on number of inflammatory cells (white blood cells, lymphocytes) compared with the model group” value is listed as “significantly reduce the number of inflammatory cells”.

The record behind these values is US20260098017A1, “NOVEL AROMATIC RING DERIVATIVE CONTAINING AMIDE SUBSTITUTION AND USE THEREOF” (TIANJIN PHARMACEUTICAL BIOTECHNOLOGY CO., LTD., priority 2022, published 2026).
